Target: T1, human Trk A kinase (Homo sapiens, UniProt P04629)
T1 construct: HIS tag; made in house; host or cells: SF9 insect cells
Experiment: Trk A Assay (Alphascreen kinase assay)
Assay type: biochemical
Conditions: intracellular domain of HIS-tagged human Trk A, 70 μM ATP, PolyEY-biotin substrate, 20 minutes room temperature; read-out: IC50 (μM), Trk inhibitory activity
Protocol: Trk A kinase activity was measured for its ability to phosphorylate synthetic tyrosine residues within a generic polypeptide substrate using an Amplified Luminescent Proximity Assay (Alphascreen) technology (PerkinElmer, 549 Albany Street, Boston, Mass.).
To measure Trk A kinase activity, the intracellular domain of a HIS-tagged human Trk A kinase (amino acids 442-796 of Trk A, Swiss-Prot Primary Accession Number P04629) was expressed in SF9 cells and purified using standard nickel column chromatography. After incubation of the kinase with a biotinylated substrate and adenosine triphosphate (ATP) for 20 minutes at room temperature, the kinase reaction was stopped by the addition of 30 mM ethylenediaminetetraacetic acid (EDTA). The reaction was performed in 384 well microtitre plates and the reaction products were detected with the addition of strepavidin coated Donor Beads and phosphotyrosine-specific antibodies coated Acceptor Beads using the EnVision Multilabel Plate Reader after an overnight incubation at room temperature.

T1 sequence (P04629 442-796): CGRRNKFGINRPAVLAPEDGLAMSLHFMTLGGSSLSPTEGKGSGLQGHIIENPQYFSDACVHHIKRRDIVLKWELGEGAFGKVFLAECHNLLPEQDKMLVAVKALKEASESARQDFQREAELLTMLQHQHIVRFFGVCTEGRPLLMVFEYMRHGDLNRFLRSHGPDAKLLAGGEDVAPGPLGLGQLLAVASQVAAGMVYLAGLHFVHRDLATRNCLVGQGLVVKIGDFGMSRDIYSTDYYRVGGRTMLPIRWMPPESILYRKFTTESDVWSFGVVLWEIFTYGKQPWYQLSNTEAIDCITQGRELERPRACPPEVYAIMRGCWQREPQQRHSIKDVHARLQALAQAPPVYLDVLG

Structure (SMILES)	IC50
Fc1ccc(CNc2ncc3ncn(-c4cc(C5CC5)[nH]n4)c3n2)cc1 [Example 4, 9-(5-Cyclopropyl-1H-pyrazol-3-yl)-N-(4-fluorobenzyl)-9H-purin-2-amine]	0.02 µM
Fc1ccc(CNc2ccc3ncn(-c4cc(C5CC5)[nH]n4)c3n2)cc1 [Example 14, N-(4-Fluorobenzyl)-3-(5-cyclopropyl-1H-pyrazol-3-yl)-3H-imidazo[4,5-b]pyridin-5-amine]	0.022 µM
Fc1ccc(CNc2ccc3ncn(-c4cc(C5CC5)[nH]n4)c3c2)cc1 [Example 29, N-(4-Fluorobenzyl)-3-(5-cyclopropyl-1H-pyrazol-3-yl)-3H-benzo[d]imidazol-5-amine]	0.015 µM

Source: patent US8129403B2, “Chemical compounds” (AstraZeneca AB, priority 2005, dated 2012)
